Test results as given in ChEMBL document CHEMBL1811850, “Exploration of acridine scaffold as a potentially interesting scaffold for discovering novel multi-target VEGFR-2 and Src kinase inhibitors” (Bioorg Med Chem, 2011).
Active and inactive are the calls of the source. The calls are words filed in the database; no cut-off is given here.

Key:
[1] = tested on: HepG2; experiment: cells; conditions: Homo sapiens, HepG2, 48 h
[2] = tested on: K562; experiment: cells; conditions: Homo sapiens, K562, 48 h
[3] = tested on: MCF7; experiment: cells; conditions: Homo sapiens, MCF7, 48 h
[4] = molecular target: Proto-oncogene tyrosine-protein kinase Src (Homo sapiens) (UniProt P12931); experiment: Inhibition of SRC at 50 uM after 1 hr
Chain of Proto-oncogene tyrosine-protein kinase Src (Homo sapiens) (P12931 2-536 limits assumed): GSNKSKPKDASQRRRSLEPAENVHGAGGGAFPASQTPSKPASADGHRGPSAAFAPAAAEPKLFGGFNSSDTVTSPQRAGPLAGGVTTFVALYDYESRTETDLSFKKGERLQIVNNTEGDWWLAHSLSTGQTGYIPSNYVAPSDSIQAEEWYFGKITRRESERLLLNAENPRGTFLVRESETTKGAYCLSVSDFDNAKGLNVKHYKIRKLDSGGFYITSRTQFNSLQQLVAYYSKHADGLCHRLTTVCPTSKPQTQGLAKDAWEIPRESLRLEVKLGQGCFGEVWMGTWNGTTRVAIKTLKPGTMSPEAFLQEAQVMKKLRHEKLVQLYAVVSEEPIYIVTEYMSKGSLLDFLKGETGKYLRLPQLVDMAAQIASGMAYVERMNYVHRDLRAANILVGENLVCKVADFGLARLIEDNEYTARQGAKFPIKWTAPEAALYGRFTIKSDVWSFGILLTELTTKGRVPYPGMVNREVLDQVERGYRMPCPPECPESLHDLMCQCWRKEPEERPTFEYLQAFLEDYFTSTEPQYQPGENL

[5] = molecular target: Proto-oncogene tyrosine-protein kinase Src (Homo sapiens) (UniProt P12931); experiment: Inhibition of SRC in human K562 cells assessed as reduction in activated ERK1/2 levels at 10 uM by Western blot analysis; format: cell-based; conditions: TDE = time-dependent effect
[6] = molecular target: Vascular endothelial growth factor receptor 2 (Homo sapiens) (UniProt P35968); experiment: Inhibition of VEGFR2 at 50 uM after 1 hr
Chain of Vascular endothelial growth factor receptor 2 (Homo sapiens) (P35968 whole entry): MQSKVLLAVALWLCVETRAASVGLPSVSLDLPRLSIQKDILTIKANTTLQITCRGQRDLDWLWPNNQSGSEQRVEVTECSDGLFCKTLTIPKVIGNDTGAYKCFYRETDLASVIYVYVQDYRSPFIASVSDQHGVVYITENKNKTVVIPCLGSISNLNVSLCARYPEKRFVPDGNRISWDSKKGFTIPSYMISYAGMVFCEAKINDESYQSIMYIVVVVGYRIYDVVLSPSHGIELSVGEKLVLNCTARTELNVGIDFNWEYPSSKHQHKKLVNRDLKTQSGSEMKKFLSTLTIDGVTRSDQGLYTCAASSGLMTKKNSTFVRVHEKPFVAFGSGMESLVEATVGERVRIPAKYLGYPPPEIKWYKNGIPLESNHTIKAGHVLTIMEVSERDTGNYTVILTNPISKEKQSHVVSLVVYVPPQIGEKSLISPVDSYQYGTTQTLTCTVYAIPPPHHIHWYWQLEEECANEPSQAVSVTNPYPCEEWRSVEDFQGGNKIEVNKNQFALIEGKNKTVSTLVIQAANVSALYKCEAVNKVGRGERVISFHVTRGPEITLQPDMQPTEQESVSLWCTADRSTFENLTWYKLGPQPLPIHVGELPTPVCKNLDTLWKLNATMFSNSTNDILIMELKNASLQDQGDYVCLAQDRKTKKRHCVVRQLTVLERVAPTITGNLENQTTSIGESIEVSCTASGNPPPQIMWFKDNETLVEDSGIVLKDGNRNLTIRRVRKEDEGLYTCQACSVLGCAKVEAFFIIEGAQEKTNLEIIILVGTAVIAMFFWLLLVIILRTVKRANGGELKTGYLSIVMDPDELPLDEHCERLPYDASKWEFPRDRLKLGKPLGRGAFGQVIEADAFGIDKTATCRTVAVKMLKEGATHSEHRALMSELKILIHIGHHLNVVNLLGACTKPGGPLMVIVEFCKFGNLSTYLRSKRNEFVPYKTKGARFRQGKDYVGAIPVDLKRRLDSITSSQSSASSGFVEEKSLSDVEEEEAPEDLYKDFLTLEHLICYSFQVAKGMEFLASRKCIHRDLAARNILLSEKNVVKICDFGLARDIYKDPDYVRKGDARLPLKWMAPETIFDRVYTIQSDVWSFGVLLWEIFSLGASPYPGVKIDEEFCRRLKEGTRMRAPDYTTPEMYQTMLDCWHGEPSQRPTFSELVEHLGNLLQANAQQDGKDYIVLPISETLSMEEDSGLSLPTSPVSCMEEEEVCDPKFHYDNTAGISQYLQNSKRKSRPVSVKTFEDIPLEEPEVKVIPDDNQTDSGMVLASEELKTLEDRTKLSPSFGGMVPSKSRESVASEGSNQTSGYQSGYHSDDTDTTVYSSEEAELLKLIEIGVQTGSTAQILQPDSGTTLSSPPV

[7] = molecular target: DNA topoisomerase 2-alpha (Homo sapiens) (UniProt P11388); experiment: Inhibition of human topoisomerase 2 at 1 to 50 uM for 40 mins using ethidium bromide by decatenation assay
Chain of DNA topoisomerase 2-alpha (Homo sapiens) (P11388 whole entry): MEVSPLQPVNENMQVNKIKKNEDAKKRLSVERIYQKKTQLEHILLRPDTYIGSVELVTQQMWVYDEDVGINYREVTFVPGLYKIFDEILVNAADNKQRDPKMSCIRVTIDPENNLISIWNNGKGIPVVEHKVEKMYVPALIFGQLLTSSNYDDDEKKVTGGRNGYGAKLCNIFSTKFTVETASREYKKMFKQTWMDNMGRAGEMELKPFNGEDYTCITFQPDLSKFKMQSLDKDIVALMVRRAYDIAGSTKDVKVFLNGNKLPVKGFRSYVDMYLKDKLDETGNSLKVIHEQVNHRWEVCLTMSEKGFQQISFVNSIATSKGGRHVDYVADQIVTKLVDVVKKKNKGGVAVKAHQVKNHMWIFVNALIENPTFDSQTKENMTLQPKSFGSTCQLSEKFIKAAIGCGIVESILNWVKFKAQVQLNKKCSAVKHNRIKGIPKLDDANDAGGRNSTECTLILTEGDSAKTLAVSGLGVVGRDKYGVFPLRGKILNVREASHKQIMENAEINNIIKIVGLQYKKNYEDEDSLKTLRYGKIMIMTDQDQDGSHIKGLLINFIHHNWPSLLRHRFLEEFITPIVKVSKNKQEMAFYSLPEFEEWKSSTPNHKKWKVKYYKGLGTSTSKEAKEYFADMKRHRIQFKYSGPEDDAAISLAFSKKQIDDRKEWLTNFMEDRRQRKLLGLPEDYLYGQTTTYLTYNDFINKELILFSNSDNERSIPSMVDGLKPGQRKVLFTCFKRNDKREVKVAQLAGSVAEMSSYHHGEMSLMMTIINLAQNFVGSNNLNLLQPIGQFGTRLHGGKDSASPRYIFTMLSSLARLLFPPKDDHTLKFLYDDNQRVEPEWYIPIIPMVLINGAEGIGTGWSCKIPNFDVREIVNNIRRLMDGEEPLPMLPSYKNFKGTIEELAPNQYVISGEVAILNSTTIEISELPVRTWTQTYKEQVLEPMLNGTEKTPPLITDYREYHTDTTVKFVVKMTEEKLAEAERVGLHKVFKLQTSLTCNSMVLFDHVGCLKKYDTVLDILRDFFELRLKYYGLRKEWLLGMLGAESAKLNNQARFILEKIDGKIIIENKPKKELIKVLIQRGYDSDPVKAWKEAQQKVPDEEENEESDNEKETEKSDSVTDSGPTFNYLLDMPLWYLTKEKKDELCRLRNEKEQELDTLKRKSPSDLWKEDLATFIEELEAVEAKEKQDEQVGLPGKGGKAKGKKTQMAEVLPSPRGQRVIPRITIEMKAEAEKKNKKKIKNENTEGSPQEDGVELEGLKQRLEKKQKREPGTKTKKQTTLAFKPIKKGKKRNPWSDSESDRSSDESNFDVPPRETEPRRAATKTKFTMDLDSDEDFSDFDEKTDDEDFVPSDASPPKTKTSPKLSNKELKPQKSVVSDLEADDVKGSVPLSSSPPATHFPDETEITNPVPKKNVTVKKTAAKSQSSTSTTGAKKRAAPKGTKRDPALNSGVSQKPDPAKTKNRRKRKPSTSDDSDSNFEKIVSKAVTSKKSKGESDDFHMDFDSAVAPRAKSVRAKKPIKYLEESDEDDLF

[8] = molecular target: Vascular endothelial growth factor receptor 2 (Homo sapiens) (UniProt P35968); experiment: Inhibition of VEGFR2 in human K562 cells assessed as reduction in activated ERK1/2 levels at 10 uM by Western blot analysis; format: cell-based
[9] = Growth inhibition of A375M cells; conditions: Homo sapiens
[10] = tested on: SK-MEL-28; experiment: Growth inhibition of SK-MEL-28 cells; conditions: Homo sapiens
[11] = tested on: Malme-3M; experiment: cells; conditions: Homo sapiens
Description: Growth inhibition of MALME-3M cells

[12] = tested on: K562; experiment: Ratio of imatinib IC50 to compound IC50 for human K562 cells after 48 hrs by MTT assay; format: functional

Row | IC50 [1] [µM] | IC50 [2] [µM] | IC50 [3] [µM] | Structure (SMILES) | further results
1 | 10.6 | 11.7 | 23.2 | COc1ccc2nc3cc(Cl)ccc3c(Nc3cccnc3N)c2c1 | –
2 | 11.4 | 4.9 | > 50 | COc1ccc2nc3cc(Cl)ccc3c(Nc3ccccc3O)c2c1 | –
3 | 9.6 | 5.5 | 13.2 | COc1ccc2nc3cc(Cl)ccc3c(Nc3cccc(O)c3)c2c1 | –
4 | 8.8 | 5.5 | 19.9 | COc1ccc2nc3cc(Cl)ccc3c(Nc3ccc(C)cc3)c2c1 | –
5 | 4.2 | 5 | 23.8 | COc1ccc2nc3cc(Cl)ccc3c(NCc3ccccc3OC)c2c1 | inhibition [4]: 8.02%; inhibition [5]: tde; inhibition [6]: 44%; inhibition [7]: inactive; inhibition [8]: Active
6 | 10.2 | 9.7 | 18.9 | COc1ccc2nc3cc(Cl)ccc3c(Nc3ccc(OC(F)(F)F)cc3)c2c1 | –
7 | 46.1 | 13.5 | > 50 | COc1ccc2nc3cc(Cl)ccc3c(Nc3ccccc3F)c2c1 | –
8 | – | – | – | Cn1c(Nc2ccc(C(F)(F)F)cc2)nc2cc(Oc3ccnc(-c4ncc(C(F)(F)F)[nH]4)c3)ccc21 [RAF-265] | IC50 [9]: 0.14 µM; IC50 [10]: 0.14 µM; IC50 [11]: 0.14 µM
9 | 16.8 | 31 | > 50 | COc1ccc2nc3cc(Cl)ccc3c(Nc3cc(OC)c(OC)c(OC)c3)c2c1 | –
10 | – | – | – | CN[C@@H]1C[C@H]2O[C@@](C)([C@@H]1OC)n1c3ccccc3c3c4c(c5c6ccccc6n2c5c31)C(=O)NC4 | inhibition [4]: 99.4%
11 | 27.9 | 9 | > 50 | CCOc1ccccc1Nc1c2ccc(Cl)cc2nc2ccc(OC)cc12 | –
12 | 4.1 | 7.3 | > 50 | COc1ccc2nc3cc(Cl)ccc3c(Nc3ccncc3)c2c1 | –
13 | 6 | 7 | 9.3 | COc1ccc2nc3cc(Cl)ccc3c(NCCN)c2c1 | –
14 | 11 | 7.7 | 23.2 | COc1ccc2nc3cc(Cl)ccc3c(Nc3ccc(N)cc3)c2c1 | –
15 | > 50 | 18.7 | > 50 | COc1ccc2nc3cc(Cl)ccc3c(Nc3ccc(C(=O)O)c(O)c3)c2c1 | inhibition [4]: 2.8%; inhibition [6]: 5.4%; inhibition [7]: inactive
16 | > 50 | 5.4 | > 50 | COc1ccc2nc3cc(Cl)ccc3c(Nc3ccccc3OC)c2c1 | –
17 | 36.8 | 21.3 | > 50 | COc1ccc2nc3cc(Cl)ccc3c(Nc3cccc(NC(C)=O)c3)c2c1 | –
18 | – | 5.4 | – | Cc1ccc(NC(=O)c2ccc(CN3CCN(C)CC3)cc2)cc1Nc1nccc(-c2cccnc2)n1 [IMATINIB] | –
19 | 14.9 | 2.7 | > 50 | COc1cccc(Nc2c3ccc(Cl)cc3nc3ccc(OC)cc23)c1 | –
20 | > 50 | 10.8 | > 50 | COc1ccc2nc3cc(Cl)ccc3c(Nc3ccc(C(F)(F)F)cc3)c2c1 | –
21 | 7.4 | 3.2 | 41.6 | CCOc1ccc(Nc2c3ccc(Cl)cc3nc3ccc(OC)cc23)cc1 | –
22 | 32.7 | 12 | 17.6 | COc1ccc2nc3cc(Cl)ccc3c(Nc3cccc(N)n3)c2c1 | inhibition [4]: 6.12%; inhibition [6]: 3.77%
23 | 6.3 | 2.2 | > 50 | COc1ccc(Nc2c3ccc(Cl)cc3nc3ccc(OC)cc23)cc1 | Ratio IC50 [12]: 2.5
24 | 30.2 | 23.8 | > 50 | COc1ccc2nc3cc(Cl)ccc3c(Nc3ccccc3Cl)c2c1 | –

Row | Structure (SMILES) | IC50 [1] [µM] | IC50 [2] [µM] | IC50 [3] [µM] | further results
25 | COc1cc2c(c(OC)c1OC)-c1ccc(OC)c(=O)cc1[C@@H](NC(C)=O)CC2 [COLCHICINE] | 1.9 | – | 1.9 | –
